Results: ChEMBL document CHEMBL1154813, “Asymmetric synthesis of anticancer beta-lactams via Staudinger reaction: utilization of chiral ketene from carbohydrate” (2010)

Columns and labels:
Assay type in all cases: functional
MDA-MB-231 = experiment: Cytotoxicity against human MDA-MB-231 cells by MTT assay
SK-OV-3 = experiment: Cytotoxicity against human SKOV3 cells by MTT assay
HT-29 = experiment: Cytotoxicity against human HT-29 cells by MTT assay
PC-3 = experiment: Cytotoxicity against human PC3 cells by MTT assay
[1] = Cytotoxicity against human BRO cells by MTT assay
K562 = experiment: Cytotoxicity against human K562 cells by MTT assay
HL-60 = experiment: Cytotoxicity against human HL60 cells by MTT assay

Structure (SMILES) | INH (MDA-MB-231) [µM] | INH (SK-OV-3) [µM] | INH (HT-29) [µM] | INH (PC-3) [µM] | INH [1] [µM] | INH (K562) [µM] | INH (HL-60) [µM]
CC(=O)O[C@H]1C(=O)N(c2cc3c4ccccc4ccc3c3ccccc23)[C@@H]1c1ccccc1 | 8.5 | 6.1 | 8.3 | 15.5 | 22 | 6 | 5.4
CC(=O)O[C@@H]1C(=O)N(c2cc3c4ccccc4ccc3c3ccccc23)[C@H]1c1ccccc1 | 0.8 | 6.8 | 0.7 | 1.4 | 6.1 | 1.1 | 0.7
CC(=O)O[C@H]1C(=O)N(c2cc3c4ccccc4ccc3c3ccccc23)[C@@H]1c1ccccc1 (racemic) | 8.7 | 8.9 | 2 | 11.1 | 15.7 | 1.1 | 0.7
